For 12 compounds, AC50 results are on record in patent publication US12673961B2 (Agios Pharmaceuticals, Inc., priority 2022, dated 2026).

The assay deals with T1, human PAH with the R408W mutation (Homo sapiens, UniProt P00439, R408W).
T1 construct: expressed in transfected cells
T1 sequence (P00439 1-452 R408W): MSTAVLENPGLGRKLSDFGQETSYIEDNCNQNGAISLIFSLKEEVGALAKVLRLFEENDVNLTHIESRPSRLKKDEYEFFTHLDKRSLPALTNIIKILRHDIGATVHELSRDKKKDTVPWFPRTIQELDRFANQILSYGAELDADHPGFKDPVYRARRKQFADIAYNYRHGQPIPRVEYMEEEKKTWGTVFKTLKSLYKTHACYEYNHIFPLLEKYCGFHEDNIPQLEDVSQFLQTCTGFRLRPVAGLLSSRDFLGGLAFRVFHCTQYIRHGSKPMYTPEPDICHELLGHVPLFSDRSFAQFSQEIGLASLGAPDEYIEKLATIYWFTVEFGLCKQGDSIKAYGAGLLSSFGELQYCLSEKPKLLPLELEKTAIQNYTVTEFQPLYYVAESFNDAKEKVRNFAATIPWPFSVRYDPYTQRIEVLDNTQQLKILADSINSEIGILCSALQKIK
As to the kind of experiment: Cell Based Phenylalanine Flux Assay.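 Further: Ten-point dose curve from 2-fold serial dilutions, run in duplicate at 0.5% DMSO final, tracer step used 20 µM sepiapterin and 800 µM labeled phenylalanine.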 The conditions noted are these: A375 cells expressing human R408W PAH; 24 hrs compound incubation; 13C-Tyrosine by LC-MS; average where tested multiple times; read-out: AC50.
In the case of `Cc1cccc2cc([C@@H]3c4nc[nH]c4CCN3C(=O)c3oc([C@@H](C)O)nc3C(F)F)nn12` [Example 1164, (4-(difluoromethyl)-2-((R)-1-hydroxyethyl)oxazol-5-yl)((S)-4-(7-methylpyrazolo [1,5-a]pyridin-2-yl)-6,7-dihydro-1H-imidazo[4,5-c]pyridin-5(4H)-yl)methanone], the AC50 – broadly, the concentration at which the activity in the assay is half-maximal – was less than 0.5 µM.

For the compound `Cc1ccc2cc([C@H]3c4nc[nH]c4CCN3C(=O)c3nnc(C(C)(C)F)o3)nn2c1` [Example 1170, (R)-(5-(2-fluoropropan-2-yl)-1,3,4-oxadiazol-2-yl)(4-(6-methylpyrazolo[1,5-a]pyridin-2-yl)-6,7-dihydro-1H-imidazo[4,5-c]pyridin-5(4H)-yl)methanone], the AC50 was more than 5 µM.

Take `Cc1ncoc1C(=O)N1CCc2[nH]cnc2[C@@H]1c1cc2cccc(Cl)n2n1` [Example 1175, (R)-(4-(7-chloropyrazolo [1,5-a]pyridin-2-yl)-6,7-dihydro-1H-imidazo[4,5-c]pyridin-5(4H)-yl)(4-methyloxazol-5-yl)methanone]: the AC50 lay within 1 to 5 µM.

As for `Cc1ccn2nc([C@H]3c4nc[nH]c4CCN3C(=O)c3cnco3)cc2c1` [Example 1184, (R)-(4-(5-methylpyrazolo [1,5-a]pyridin-2-yl)-6,7-dihydro-1H-imidazo[4,5-c]pyridin-5(4H)-yl)(oxazol-5-yl)methanone], the AC50 was in the range of 0.5 to 1 µM.

In the case of `Cc1ccn2nc([C@@H]3c4nc[nH]c4CCN3C(=O)c3cnco3)cc2c1` [Example 1185, (S)-(4-(5-methylpyrazolo [1,5-a]pyridin-2-yl)-6,7-dihydro-1H-imidazo[4,5-c]pyridin-5(4H)-yl)(oxazol-5-yl)methanone], the AC50 is 1 to 5 µM.

For `Cc1c(-c2nnc(C(=O)N3CCc4[nH]cnc4[C@H]3c3cc4cccc(C)n4n3)o2)cnn1C` [Example 1188, (S)-(5-(1,5-dimethyl-1H-pyrazol-4-yl)-1,3,4-oxadiazol-2-yl)(4-(7-methylpyrazolo[1,5-a]pyridin-2-yl)-6,7-dihydro-1H-imidazo[4,5-c]pyridin-5(4H)-yl)methanone], the half-maximal activity concentration (AC50) was in the range of 0.5 to 1 µM.

With `Cc1c(-c2nnc(C(=O)N3CCc4[nH]cnc4[C@H]3c3cc4cccc(C(F)(F)F)n4n3)o2)cnn1C` [Example 1190, (S)-(5-(1,5-dimethyl-1H-pyrazol-4-yl)-1,3,4-oxadiazol-2-yl)(4-(7-(trifluoromethyl)pyrazolo[1,5-a]pyridin-2-yl)-6,7-dihydro-1H-imidazo [4,5-c]pyridin-5(4H)-yl)methanone], the AC50 fell in the range of 0.5 to 1 µM.

As to `C[C@@H](O)c1nc(C(F)F)c(C(=O)N2CCc3[nH]cnc3[C@H]2c2cc3cccc(Cl)n3n2)o1` [Example 1196, ((S)-4-(7-chloropyrazolo [1,5-a]pyridin-2-yl)-6,7-dihydro-1H-imidazo[4,5-c]pyridin-5(4H)-yl)(4-(difluoromethyl)-2-((R)-1-hydroxyethyl)oxazol-5-yl)methanone], the AC50 was less than 0.5 µM.

`Cc1ncoc1C(=O)N1CCc2[nH]cnc2[C@H]1c1cc2cccc(C(F)(F)F)n2n1` [Example 1198]: the AC50 was 0.5 to 1 µM.

For the compound `Cc1ncoc1C(=O)N1CCc2[nH]cnc2[C@@H]1c1cc2cccc(C(F)(F)F)n2n1` [Example 1199], the AC50 was in the range of 1 to 5 µM.

Take `COc1cccn2nc([C@H]3c4nc[nH]c4CCN3C(=O)c3nnc(-c4cnn(C)c4C)o3)cc12` [Example 1207, (R)-(5-(1,5-dimethyl-1H-pyrazol-4-yl)-1,3,4-oxadiazol-2-yl)(4-(4-methoxypyrazolo [1,5-a]pyridin-2-yl)-6,7-dihydro-1H-imidazo[4,5-c]pyridin-5(4H)-yl)methanone]: the AC50 is more than 5 µM.

For the compound `Cc1c(-c2nnc(C(=O)N3CCc4[nH]cnc4[C@H]3c3cc4c(Cl)cccn4n3)o2)cnn1C` [Example 1214, (S)-(4-(4-chloropyrazolo [1,5-a]pyridin-2-yl)-6,7-dihydro-1H-imidazo[4,5-c]pyridin-5(4H)-yl)(5-(1,5-dimethyl-1H-pyrazol-4-yl)-1,3,4-oxadiazol-2-yl)methanone], the AC50 was less than 0.5 µM.
